# From US9910044B2, “Methods for identifying arthropod repellents based on modulation of specific ionotropic receptors, and compounds and compositions identified by such methods” (The Regents of the University of California, priority 2013, dated 2018)
# Read-outs that look alike come from different tables or passages of the source.
# Legend:
# [1] = tested on: Drosophila; assay type: in vivo, Drosophila melanogaster
# [2] = target: human acetylcholinesterase (Homo sapiens, UniProt P22303); conditions: Corbel et al., BMC Biol, 7, 2009; cited from earlier work
# Sequence of human acetylcholinesterase (P22303 32-614): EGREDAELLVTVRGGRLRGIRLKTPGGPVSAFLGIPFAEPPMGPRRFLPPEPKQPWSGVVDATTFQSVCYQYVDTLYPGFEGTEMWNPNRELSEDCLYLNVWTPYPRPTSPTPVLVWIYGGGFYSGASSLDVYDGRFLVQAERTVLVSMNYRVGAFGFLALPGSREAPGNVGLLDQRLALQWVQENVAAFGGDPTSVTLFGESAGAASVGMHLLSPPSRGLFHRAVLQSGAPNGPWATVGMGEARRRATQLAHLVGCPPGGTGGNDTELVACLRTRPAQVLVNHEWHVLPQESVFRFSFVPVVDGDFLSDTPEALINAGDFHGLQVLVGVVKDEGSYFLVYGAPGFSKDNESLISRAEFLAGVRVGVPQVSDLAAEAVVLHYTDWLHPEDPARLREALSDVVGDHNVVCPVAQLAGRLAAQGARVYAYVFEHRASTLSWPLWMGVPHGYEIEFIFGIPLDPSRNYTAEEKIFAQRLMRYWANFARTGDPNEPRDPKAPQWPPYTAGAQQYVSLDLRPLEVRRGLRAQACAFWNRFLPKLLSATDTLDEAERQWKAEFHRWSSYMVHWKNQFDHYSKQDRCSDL
# [3] = tested on: mammalian cation channels; conditions: cited from earlier work
# [4] = tested on: Drosophila; assay: Drosophila olfactory avoidance assay, 2-choice trap; assay type: in vivo, Drosophila melanogaster
# Description: For each trial, three- to six-day old flies (10 males and 10 females) were starved for 18 hours. Flies were transferred to a cylindrical 38.1 mm D×84.1 mm H chamber containing two traps each fashioned from an upturned 1.5 ml microcentrifuge tube with 2 mm removed from the tapered end. A pipette tip (1000 μl), was cut 2.5 cm from narrow end and 0.5 cm from top and inserted into the bottom of the inverted microcentrifuge tube. A 15 mm×16 mm #1 Whatmann filter paper was inserted in between the pipette tip and tip of microcentrifuge tube in a manner that entering flies cannot make physical contact with it. With reference to FIG. 2A, for the 1-choice test, a 50 μl sample of test odorant (50% DEET in DMSO) was applied to filter paper and 125 μl of 10% apple cider vinegar (ACV) is applied to the upturned lid of the microcentrifuge tube as attractant. With reference again to FIG. 2A, for the 2-choice test, two 10% ACV lured traps were placed in the cylinder, one with DMSO as the solvent (right) and another with DEET (left).
compound,measurement,setting,value
"CCN(CC)C(=O)c1cccc(C)c1 [DEET, N,N-Diethyl-m-toluamide]",avoidance of DEET-treated trap,"[1]; Ir25a neuron-TNTG flies (Ir25a-Ga14/UAS-TNTG), 10% ACV lure",substantially decreased
same,avoidance of DEET-treated trap,"[1]; Ir40a neuron-TNTG flies (Ir40a-Ga14/UAS-TNTG), versus controls, 10% ACV lure",substantially decreased
same,avoidance of DEET-treated trap,"[1]; control flies Ir25a-Ga14/UAS-IMPTV, 10% ACV lure",observed to avoid DEET
same,avoidance of DEET-treated trap,"[1]; control flies Ir40a-G4/+ and UAS-TNTG/+, 10% ACV lure",observed to avoid DEET
same,avoidance of DEET-treated trap,[1]; in vivo,observed to avoid DEET
same,olfactory avoidance to DEET,[1]; in vivo,nearly abolished
same,inhibition of human acetylcholinesterase,[2],inhibit
same,inhibition of mammalian cation channels,[3],inhibit
same,avoidance response to volatile DEET,"[4]; Ir40a neuron-silenced flies (Ir40a-promoter-Ga14, UAS-kir), 10% ACV lure",avoidance was observed to be lost
same,DEET avoidance,"[4]; Ir40a-RNAi flies (Ir40a-G4 with UAS-Ir40a-RNAi) compared to control flies, 10% ACV lure",loss of DEET avoidance
same,olfactory DEET avoidance,"[4]; Ir93a-/- and Ir25a receptor mutant flies, FIG. 6B",found to be involved in olfactory DEET avoidance
same,olfactory avoidance to DEET,"[4]; two DGRP lines with mutations in Ir40a (RAL-158, RAL-272), DEET 50% in DMSO, 10% ACV lure",nearly abolished
same,avoidance response to volatile DEET,"[4]; two control lines of the Ir40a-promoter-Ga14/UAS-kir experiment, 10% ACV lure",robust and reproducible avoidance response
same,avoidance response to volatile DEET,"[4]; wild-type Canton-S, DEET 50% in DMSO, 10% ACV lure",robust and reproducible avoidance response
